Series [1] deals with rSsoPK4(284–635). Put plainly: Protein kinase activity assay (filter paper method, [γ-32P]ATP, 65 °C) of rSsoPK4(284–635). Format: biochemical, Sulfolobus solfataricus. To be noted: for Vmax in the presence of CoAS-SCoA: CoAS-SCoA 1 mM. As to the method:
(§1) Protein kinase activity was routinely assayed by the filter paper method of Corbin and Reimann as modified by Lower and Kennelly. The final volume of the assays was typically 50 μL. The quantity of rSsoPK4 assayed ranged from 0.1 to 5.0 µg. Both MgCl2 and MnCl2 were included at a final concentration of 5 mM each. The final concentration of [γ-^32P]ATP was 100 μM. The specific activity of the [γ-^32P]ATP generally ranged from 2 to 5 × 10^15 cpm/mol. Phosphoacceptor proteins were generally present at a concentration of 0.5–1.0 µg/µL. The assay mixture was typically incubated for a period of 30 min to one hour at 65 °C in 50 mM MOPS pH 7.0. On occasion, the proteins within the assay mixture were resolved by SDS-PAGE in order to identify the specific polypeptides that were phosphorylated. Radiolabeled species were visualized using an Instant Imager from Packard (Downers Grove, IL, USA).

Series [2] relates to rSsoPK4(284–635) T592D/T606D/S611D. Put plainly: Protein kinase activity assay of rSsoPK4(284–635) T592D/T606D/S611D. The class given is biochemical, Sulfolobus solfataricus. Conditions: MBP as substrate (Figure 9). As to the method: Figure 9 CoAS-SCoA activates rSsoPK4(284–635), but not rSsoPK4(284–635) T592D/T606D/S611D, in a concentration-dependent manner. The activity of rSsoPK4(284–635) (OPEN […]) and rSsoPK4(284–635) T592D/T606D/S611D (OPEN CIRCLES) were assayed, in duplicate, in the presence of the indicated concentrations of CoAS-SCoA using MBP as substrate. Shown is a plot of the activity relative to that measured in the absence of CoAS-SCoA, which was normalized as 1.0, plus or minus mean average deviation.

Series [3] concerns rSsoPK4(284–635)T606D/S611D. Nature of the series: Protein kinase activity assay of rSsoPK4(284–635)T606D/S611D. The class given is biochemical, Sulfolobus solfataricus.
In series [4] the target is T1, rSsoPK4(284–635) (Saccharolobus solfataricus, UniProt Q97U41).
T1 construct: gene SSO3182; residues 284–635 (catalytic and part of central helical repeat domain), N-terminal S-tag, C-terminal 33-residue fusion domain with polyhistidine motif, pET-29b, expressed in E. coli
T1 sequence (Q97U41 284-635): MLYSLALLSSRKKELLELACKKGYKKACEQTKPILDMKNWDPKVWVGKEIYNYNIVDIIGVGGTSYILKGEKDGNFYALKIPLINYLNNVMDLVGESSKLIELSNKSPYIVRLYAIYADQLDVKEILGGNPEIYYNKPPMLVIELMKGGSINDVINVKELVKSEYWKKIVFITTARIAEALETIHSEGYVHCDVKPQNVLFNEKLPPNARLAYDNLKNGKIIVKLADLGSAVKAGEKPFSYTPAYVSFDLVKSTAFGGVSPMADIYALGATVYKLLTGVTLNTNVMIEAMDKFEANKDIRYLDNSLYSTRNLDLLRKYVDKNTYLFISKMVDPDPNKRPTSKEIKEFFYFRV
Put plainly: Filter paper [γ-32P]ATP kinase assay with MBP as phosphoacceptor, ATP routinely 100 µM, 5 mM MgCl2 and 5 mM MnCl2, 50 mM MOPS pH 7.0, 65 °C, in the presence of nucleotide effectors. Format: biochemical. As to the method: as §1

Substrate in series [5]: Nc1ncnc2c1ncn2[C@@H]1O[C@H](COP(=O)(O)OP(=O)(O)OP(=O)(O)O)[C@@H](O)[C@H]1O
Put plainly: Filter paper [32P]phosphate incorporation kinase assay with varied [γ-32P]ATP and mixed histones fixed at 70 µM as phosphoacceptor, 5 mM MgCl2 and 5 mM MnCl2, 50 mM MOPS pH 7.0, 65 °C; Lineweaver-Burk plot. Format: biochemical.

The results in this text go back to publication PMC5217372, “Activation of SsoPK4, an Archaeal eIF2α Kinase Homolog, by Oxidized CoA” (Proteomes, 2015).

One may read the IC50 as the concentration that inhibits the measured activity by half. Broadly, the Km is the substrate concentration at which the rate is half of its maximum.

For the molecule `CC(C)(COP(=O)(O)OP(=O)(O)OC[C@H]1O[C@@H](n2cnc3c(N)ncnc32)C(O)[C@H]1OP(=O)(O)O)[C@@H](O)C(=O)NCCC(=O)NCCSSCCNC(=O)CCNC(=O)[C@H](O)C(C)(C)COP(=O)(O)OP(=O)(O)OC[C@H]1O[C@@H](n2cnc3c(N)ncnc32)C(O)[C@H]1OP(=O)(O)O` (stereo partly shown) [CoAS-SCoA, oxidized Coenzyme A], the “Vmax in the presence of CoAS-SCoA” value is 4.8 nmol/min/mg in series [1] (protein substrate MBP (3.7 without)) and 2.9 nmol/min/mg in series [1] (protein substrate aIF2α (4.2 without)). Also, in series [1] (MBP substrate, compounds at 1 mM (Figure 8)), the “effect on protein kinase activity toward MBP” value was “stimulate protein kinase activity toward MBP several-fold”. In series [1] (from ~48 µM in absence to ~6 µM in presence of oxidized CoA), the “shift (lowering) of Km for aIF2α by oxidized CoA” value is ~ 8 fold. Further, the “sensitivity of activity to oxidized CoA” value in series [2] and in series [3] was “no longer sensitive” each time.

Turning to `Nc1ncnc2c1ncn2[C@@H]1O[C@H](COP(=O)(O)OP(=O)(O)O)[C@@H](O)[C@H]1O` [ADP, adenosine 5'-diphosphate], the half-maximal inhibitory concentration (IC50) in series [4] was 190 µM.

Regarding `Nc1ncnc2c1ncn2[C@@H]1O[C@H](COP(=O)(O)O)[C@@H](O)[C@H]1O` [5'AMP, adenosine 5'-monophosphate], the IC50 in series [4] amounted to 920 µM.

For `Nc1ncnc2c1ncn2[C@@H]1O[C@H](CO)[C@@H](OP(=O)(O)O)[C@H]1O` [3ʹ-AMP, adenosine 3'-monophosphate], the IC50 in series [4] was 2100 µM.

B1: rSsoPK4(284–635) (Saccharolobus solfataricus P2) (protein)
chain: T1 sequence (Q97U41 284-635)
notes: residues 284–635 (catalytic and part of central helical repeat domain), N-terminal S-tag, C-terminal 33-residue fusion domain with polyhistidine motif, pET-29b, expressed in E. coli
In the case of B1, in series [5], the Km amounted to 100 µM.
